From US20260007684A1, “AMIDE DERIVATIVES FOR INHIBITING NLRP3 AND USES THEREOF” (Ventus Therapeutics U.S., Inc., priority 2023, published 2026)

Columns and labels:
[1] = target: T1, human NLRP3 (Homo sapiens (Human), UniProt Q96P20); experiment: Human PBMC NLRP3 Assay (LPS priming, ATP stimulation, cytokine measurement); format: cell-based; details: for IC50: read-out: PBMC IC50
[2] = target: T1, human NLRP3; experiment: Scintillation Proximity (SPA) NLRP3 Assay: displacement of 3H-MCC950; format: binding
[3] = human PBMC, LPS priming, ATP stimulation
[4] = displacement of 3H-MCC950, read-out: SPA IC50
[5] = SPA IC50, displacement of 3H-MCC950

T1 sequence (Q96P20 whole entry): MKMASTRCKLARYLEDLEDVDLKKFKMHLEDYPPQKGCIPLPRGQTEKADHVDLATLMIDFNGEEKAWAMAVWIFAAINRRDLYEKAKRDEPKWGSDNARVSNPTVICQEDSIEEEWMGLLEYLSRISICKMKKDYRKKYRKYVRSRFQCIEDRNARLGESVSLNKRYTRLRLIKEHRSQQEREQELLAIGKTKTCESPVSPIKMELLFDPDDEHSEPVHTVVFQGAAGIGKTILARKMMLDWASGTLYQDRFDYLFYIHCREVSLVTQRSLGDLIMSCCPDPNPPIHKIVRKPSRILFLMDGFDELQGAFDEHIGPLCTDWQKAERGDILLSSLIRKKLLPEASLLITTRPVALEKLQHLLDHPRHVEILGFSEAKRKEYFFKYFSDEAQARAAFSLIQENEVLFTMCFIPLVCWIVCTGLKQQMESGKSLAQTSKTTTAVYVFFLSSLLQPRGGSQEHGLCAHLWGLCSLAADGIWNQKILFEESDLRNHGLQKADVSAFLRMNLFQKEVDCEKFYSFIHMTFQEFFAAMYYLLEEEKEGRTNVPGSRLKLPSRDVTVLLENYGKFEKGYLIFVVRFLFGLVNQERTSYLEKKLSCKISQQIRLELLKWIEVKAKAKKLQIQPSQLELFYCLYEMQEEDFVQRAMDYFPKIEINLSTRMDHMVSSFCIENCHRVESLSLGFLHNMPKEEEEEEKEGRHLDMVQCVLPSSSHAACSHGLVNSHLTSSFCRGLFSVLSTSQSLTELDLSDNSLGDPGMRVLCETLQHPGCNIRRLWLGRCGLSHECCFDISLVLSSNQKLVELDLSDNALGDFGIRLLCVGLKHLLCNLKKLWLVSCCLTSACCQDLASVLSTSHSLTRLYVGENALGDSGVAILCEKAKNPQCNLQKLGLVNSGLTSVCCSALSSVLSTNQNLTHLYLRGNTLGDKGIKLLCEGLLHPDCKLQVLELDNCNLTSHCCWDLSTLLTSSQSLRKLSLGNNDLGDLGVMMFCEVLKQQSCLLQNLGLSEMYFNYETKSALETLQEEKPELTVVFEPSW

SMILES | IC50 [1, 3] [µM] | IC50 [2, 4] [µM] | other results
C[C@@H]1CCN(c2nnn[nH]2)C[C@H](NC(=O)C2(c3ccc(OC(F)F)cc3O)CC2)C1 (single isomer, unassigned) [70A*] | < 0.01 | < 1 | 
C[C@@H]1CCN(c2nnn[nH]2)C[C@@H](NC(=O)C2(c3ccc(OC(F)F)cc3O)CC2)C1 (single isomer, unassigned) [70B*] | 0.01 to 0.1 | < 1 | 
O=C(N[C@H]1CCCN(c2ccccc2)C1)c1ccc(Cl)cc1 [Comparative Example J2, (S)-4-chloro-N-(1-phenylpiperidin-3-yl)benzamide, reference compound] |  |  | IC50 [1]: > 100 µM
C[C@@H]1CCN(c2nnn[nH]2)C[C@H](NC(=O)C2(c3ccc(C(F)F)cc3O)CC2)C1 (single isomer, unassigned) [30A*, 1-(4-(difluoromethyl)-2-hydroxyphenyl)-N-(5-methyl-1-(1H-tetrazol-5-yl)azepan-3-yl)cyclopropane-1-carboxamide] | < 0.01 | < 1 | 
O=C(N[C@@H]1CCCN(c2ccccc2)C1)c1ccc(Cl)cc1 [Comparative Example J1, (R)-4-chloro-N-(1-phenylpiperidin-3-yl)benzamide, reference compound] |  |  | IC50 [1]: > 100 µM
O=C(NC1CC(C(F)(F)F)CCN(c2nnn[nH]2)C1)C1(c2ccc(Cl)cc2)CC1 (racemic) [Rac-1, 1-(4-chlorophenyl)-N-[1-(1H-1,2,3,4-tetrazol-5-yl)-5-(trifluoromethyl)azepan-3-yl]cyclopropane-1-carboxamide] | 0.1 to 0.5 | < 1 | 
C[C@@H]1CCN(c2nnn[nH]2)C[C@@H](NC(=O)C2(c3ccc(C(F)(F)F)c(F)c3O)CC2)C1 (single isomer, unassigned) [31B*, 1-(3-fluoro-2-hydroxy-4-(trifluoromethyl)phenyl)-N-(5-methyl-1-(1H-tetrazol-5-yl)azepan-3-yl)cyclopropane-1-carboxamide] | 0.01 to 0.1 | < 1 | 
O=C(N[C@@H]1CCCN(c2nnn[nH]2)C1)C1(c2ccc(Cl)cc2F)CC1 [Compound 105, (R)-N-(1-(1H-tetrazol-5-yl)piperidin-3-yl)-1-(4-chloro-2-fluorophenyl)cyclopropane-1-carboxamide] | > 0.5 |  | IC50 [1]: 0.85 µM; fold increase in potency as measured by PBMC IC50 ([1]; relative to Compound 10A): 2.5 fold
Cc1ccc(C2(C(=O)N[C@@H]3C[C@H](C)CCN(c4nnn[nH]4)C3)CC2)cc1 (single isomer, unassigned) [71A*] | 0.01 to 0.1 | < 1 | 
Cn1nnnc1N1CCC[C@@H](NC(=O)C2(c3ccc(Cl)cc3)CC2)C1 [Comparative Example F, (R)-1-(4-chlorophenyl)-N-(1-(1-methyl-1H-tetrazol-5-yl)piperidin-3-yl)cyclopropane-1-carboxamide, reference compound] |  |  | IC50 [1]: 8.4 µM
C[C@@H]1CCN(c2nnn[nH]2)C[C@H](NC(=O)C2(c3ccc(Cl)cc3Cl)CC2)C1 (single isomer, unassigned) [55A*] | 0.01 to 0.1 | < 1 | 
C[C@@H]1CCN(c2nnn[nH]2)C[C@H](NC(=O)C2(c3ccc(C(F)(F)F)cc3F)CC2)C1 (single isomer, unassigned) [68A*] | < 0.01 | < 1 | 
C[C@@H]1CCN(c2nnn[nH]2)C[C@H](NC(=O)C2(c3cc(F)c(C(F)(F)F)cc3F)CC2)C1 (single isomer, unassigned) [7A*, 1-(2,5-difluoro-4-(trifluoromethyl)phenyl)-N-(5-methyl-1-(1H-tetrazol-5-yl)azepan-3-yl)cyclopropane-1-carboxamide] | 0.01 to 0.1 | < 1 | 
C[C@@H]1CCN(c2nnn[nH]2)C[C@H](NC(=O)C2(c3ccc(Cl)c(F)c3F)CC2)C1 (single isomer, unassigned) [4A*, 1-(4-chloro-2,3-difluorophenyl)-N-(5-methyl-1-(1H-tetrazol-5-yl)azepan-3-yl)cyclopropane-1-carboxamide] | 0.01 to 0.1 | < 1 | 
C[C@H]1CCN(c2nnn[nH]2)C[C@@H](NC(=O)C2(c3ccc(OC(F)F)cc3O)CC2)C1 (single isomer, unassigned) [70D*] | 0.01 to 0.1 | < 1 | 
C[C@@H]1CCN(c2nnn[nH]2)C[C@@H](NC(=O)C2(c3ccc(C(F)F)cc3O)CC2)C1 (single isomer, unassigned) [30B*, 1-(4-(difluoromethyl)-2-hydroxyphenyl)-N-(5-methyl-1-(1H-tetrazol-5-yl)azepan-3-yl)cyclopropane-1-carboxamide] | 0.01 to 0.1 | < 1 | 
O=C(N[C@@H]1CC[C@H]2CC[C@@H]1N2c1nnn[nH]1)C1(c2ccc(OC(F)F)cc2)CC1 [Compound 106, N-((1S,2R,5S)-8-(1H-tetrazol-5-yl)-8-azabicyclo[3.2.1]octan-2-yl)-1-(4-(difluoromethoxy)phenyl)cyclopropane-1-carboxamide] | > 0.5 |  | 
C[C@@H]1CCN(c2nnn[nH]2)C[C@@H](NC(=O)C2(c3ccc(C(F)(F)F)cc3F)CC2)C1 (single isomer, unassigned) [68B*] |  | 1 to 10 | 
C[C@H]1C[C@@H](NC(=O)C2(c3ccc(OC(F)F)cc3F)CC2)[C@@H]2CC[C@H]1N2c1nnn[nH]1 (stereo in doubt) [101C*, 1-(4-(difluoromethoxy)-2-fluorophenyl)-N-(4-methyl-8-(1H-tetrazol-5-yl)-8-azabicyclo[3.2.1]octan-2-yl)cyclopropane-1-carboxamide] |  | > 100 | 

SMILES | IC50 [1, 3] [µM] | IC50 [2, 4] [µM] | other results
O=C(N[C@@H]1CCCN(c2nnn[nH]2)C1)c1ccc(Cl)cc1 [Comparative Example G, (R)-N-(1-(1H-tetrazol-5-yl)piperidin-3-yl)-4-chlorobenzamide, reference compound] |  |  | IC50 [1]: > 100 µM
O=C(Cc1ccc(Cl)cc1)N[C@@H]1CCCN(c2nnn[nH]2)C1 [Comparative Example H, (R)-N-(1-(1H-tetrazol-5-yl)piperidin-3-yl)-2-(4-chlorophenyl)acetamide, reference compound] |  |  | IC50 [1]: 10.5 µM
C[C@H]1CCN(c2nnn[nH]2)C[C@@H](NC(=O)C2(c3cnc(Cl)cc3O)CC2)C1 (single isomer, unassigned) [99D*] |  | 10 to 50 | 
C[C@H]1C[C@H]2CC[C@@H]([C@@H](NC(=O)C3(c4ccc(C(F)(F)F)cc4)CC3)C1)N2c1nnn[nH]1 [104H*, N-((1S,2S,4R,6R)-4-methyl-9-(1H-tetrazol-5-yl)-9-azabicyclo[4.2.1]nonan-2-yl)-1-(4-(trifluoromethyl)phenyl)cyclopropane-1-carboxamide] |  |  | IC50 [2, 5]: 50 to 100 µM
C[C@H]1CCN(c2nnn[nH]2)C[C@@H](NC(=O)C2(c3cc(F)c(Cl)cc3O)CC2)C1 (single isomer, unassigned) [29D*, 1-(4-chloro-5-fluoro-2-hydroxyphenyl)-N-(5-methyl-1-(1H-tetrazol-5-yl)azepan-3-yl)cyclopropane-1-carboxamide] |  | 10 to 50 | 
Cn1nnnc1-c1cccc(NC(=O)C2(c3ccc(Cl)cc3)CC2)c1 [Comparative Example E1, 1-(4-chlorophenyl)-N-(3-(1-methyl-1H-tetrazol-5-yl)phenyl)cyclopropane-1-carboxamide, reference compound] |  |  | IC50 ([2]; read-out: SPA IC50): > 500 µM
Cc1cc(C2(C(=O)N[C@H]3C[C@H](C)CCN(c4nnn[nH]4)C3)CC2)ccc1C(F)(F)F (single isomer, unassigned) [6B*, N-(5-methyl-1-(1H-tetrazol-5-yl)azepan-3-yl)-1-(3-methyl-4-(trifluoromethyl)phenyl)cyclopropane-1-carboxamide] |  | 50 to 100 | 
C[C@@H]1CCN(c2nnn[nH]2)C[C@@H](NC(=O)C2(c3ccc(OC(F)F)cc3F)CC2)C1 (single isomer, unassigned) [3B*] |  | 1 to 10 | 
O=C(N[C@@H]1CCC[C@@H]2CC[C@H]1N2c1nnn[nH]1)C1(c2ccc(Cl)cc2)CC1 (single isomer, unassigned) [9A*, N-(9-(1H-tetrazol-5-yl)-9-azabicyclo[4.2.1]nonan-2-yl)-1-(4-chlorophenyl)cyclopropane-1-carboxamide] |  |  | IC50 [2, 5]: 1 to 10 µM
C[C@H]1CCN(c2nnn[nH]2)C[C@H](NC(=O)C2(c3ccc(C4CC4)cc3)CC2)C1 (single isomer, unassigned) [2C*] |  | 10 to 50 | 
C[C@@H]1CCN(c2nnn[nH]2)CC(NC(=O)C2(c3ccc(OC(F)F)cc3)CC2)C1 (stereo in doubt) [58B*, 1-(4-(difluoromethoxy)phenyl)-N-((3S,5R)-5-methyl-1-(1H-tetrazol-5-yl)azepan-3-yl)cyclopropane-1-carboxamide] |  | 1 to 10 | 
C[C@@H]1C[C@H](NC(=O)C2(c3ccc(C(F)F)cc3)CC2)[C@H]2CC[C@@H]1N2c1nnn[nH]1 [86B*, 1-(4-(difluoromethyl)phenyl)-N-((1R,2S,4R,5S)-4-methyl-8-(1H-tetrazol-5-yl)-8-azabicyclo[3.2.1]octan-2-yl)cyclopropane-1-carboxamide] |  | 10 to 50 | 
C[C@H]1CCN(c2nnn[nH]2)C[C@@H](NC(=O)C2(c3ccc(OC(F)F)cc3)CC2)C1 (single isomer, unassigned) [58D*] |  | 1 to 10 | 
C[C@H]1CCN(c2nnn[nH]2)C[C@H](NC(=O)C2(c3ccc(SC(F)(F)F)cc3)CC2)C1 (single isomer, unassigned) [69C*] |  | > 100 | 
C[C@@H]1C[C@@H](NC(=O)C2(c3ccc(OC(F)F)cc3)CC2)[C@@H]2CC[C@H]1N2c1nnn[nH]1 (single isomer, unassigned) [35G*] |  | > 100 | 
Cc1ccc(C2(C(=O)N[C@@H]3C[C@@H](C)CCN(c4nnn[nH]4)C3)CC2)c(O)c1 (single isomer, unassigned) [67C*] |  | 10 to 50 | 
CC1(C)C[C@H](NC(=O)C2(c3ccc(Cl)cc3O)CC2)CN(c2nnn[nH]2)C1 (single isomer, unassigned) [42B*] |  | 10 to 50 | 
C[C@]1(NC(=O)C2(c3ccc(Cl)cc3)CC2)CCCN(c2nnn[nH]2)C1 (single isomer, unassigned) [11B*, 1-(4-chlorophenyl)-N-(3-methyl-1-(1H-tetrazol-5-yl)piperidin-3-yl)cyclopropane-1-carboxamide] |  | > 100 | 
